# Experimental data from publication PMC7144330, “2-Thiopyrimidine/chalcone hybrids: design, synthesis, ADMET prediction, and anticancer evaluation as STAT3/STAT5a inhibitors” (Journal of Enzyme Inhibition and Medicinal Chemistry, 2020).
# Like-named read-outs stand apart in the source and are kept apart here.
# Columns and labels:
# K-562 = assay: MTT cytotoxic assay, leukaemia K-562 cell line; format: cell-based
# Experimental: (§1) To investigate cytotoxic activity of the final target compounds 9a–r, MTT assay was performed. Three different cell lines were used, leukaemia (K-562), breast (MCF-7) and colon (HT-29) cell lines. Cisplatin and erlotinib were the reference drugs used in this study.
# (§2) All target compounds 9a–r were screened against three different cancer cell lines, leukaemia (K-562), breast (MCF-7), and colon (HT-29). MTT assay was used. Both cisplatin and erlotinib were used as the reference drugs. Cytotoxicity results are recorded in Table 1.
# MCF-7 = assay: MTT cytotoxic assay, breast MCF-7 cell line; format: cell-based, human
# Experimental: as §1, §2
# HT-29 = assay: MTT cytotoxic assay, colon HT-29 cell line; format: cell-based; conditions: read-out: (IC50 μM)±SD HT-29
# Experimental: as §1, §2
# STAT3 = biological target: T1, STAT3 (Homo sapiens, UniProt P40763); assay: TransAM STAT3 activation assay on nuclear extracts of treated cells; format: cell-based; conditions: 24 h, read-out: Inhibition IC50 (µM) STAT3
# T1 construct: endogenous in cells; host or cells: K-562 and MCF-7 cells (nuclear extracts)
# T1 sequence (P40763 whole entry): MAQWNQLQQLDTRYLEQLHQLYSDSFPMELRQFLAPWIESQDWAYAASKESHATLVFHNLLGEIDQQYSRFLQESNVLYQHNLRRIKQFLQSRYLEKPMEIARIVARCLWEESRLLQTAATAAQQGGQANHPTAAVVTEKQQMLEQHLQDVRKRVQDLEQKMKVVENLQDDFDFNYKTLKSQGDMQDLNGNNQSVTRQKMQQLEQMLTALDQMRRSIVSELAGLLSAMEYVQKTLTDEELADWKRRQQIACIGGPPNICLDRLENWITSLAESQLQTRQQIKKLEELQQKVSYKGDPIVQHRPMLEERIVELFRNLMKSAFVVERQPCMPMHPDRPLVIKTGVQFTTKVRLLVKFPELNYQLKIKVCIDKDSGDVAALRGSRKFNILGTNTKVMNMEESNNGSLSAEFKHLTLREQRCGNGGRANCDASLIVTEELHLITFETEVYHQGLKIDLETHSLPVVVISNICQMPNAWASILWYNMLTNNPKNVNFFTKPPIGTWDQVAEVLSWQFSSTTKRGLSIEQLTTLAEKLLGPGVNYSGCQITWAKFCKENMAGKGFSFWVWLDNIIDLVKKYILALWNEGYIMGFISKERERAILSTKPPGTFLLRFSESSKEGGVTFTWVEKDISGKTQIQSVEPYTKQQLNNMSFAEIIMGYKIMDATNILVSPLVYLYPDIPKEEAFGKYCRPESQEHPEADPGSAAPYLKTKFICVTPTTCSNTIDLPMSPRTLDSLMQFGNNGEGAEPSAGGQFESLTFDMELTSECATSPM
# Experimental: (§3) Both K-562 and MCF-7 cell lines were seeded overnight in plates, then 10 µM of test compounds (9a and 9r for MCF-7 cells; 9d, 9f, and 9n for K-562 cells) or reference drug pacritinib was added for 24 h. A nuclear extract kit was used to extract nuclear fractions from treated cells using the manufacture’s procedure. STAT3 and STAT5a activations were analysed using the collected nuclear extracts (20 µg) through TransAM STAT3 and STAT5a activation assay guided by the manufacture’s protocol. The obtained results were expressed in the form of mean ± SD. Each experiment was done in triplicate.
# (§4) Pacritinib, an inhibitor for both STAT3 and STAT5a[49] was used in this study as a reference drug.
# STAT5a = biological target: T2, STAT5a (Homo sapiens, UniProt P42229); assay: TransAM STAT5a activation assay on nuclear extracts of treated cells; format: cell-based; conditions: 24 h, read-out: Inhibition IC50 (µM) STAT5a
# T2 construct: endogenous in cells; host or cells: K-562 and MCF-7 cells (nuclear extracts)
# T2 sequence (P42229 1-794): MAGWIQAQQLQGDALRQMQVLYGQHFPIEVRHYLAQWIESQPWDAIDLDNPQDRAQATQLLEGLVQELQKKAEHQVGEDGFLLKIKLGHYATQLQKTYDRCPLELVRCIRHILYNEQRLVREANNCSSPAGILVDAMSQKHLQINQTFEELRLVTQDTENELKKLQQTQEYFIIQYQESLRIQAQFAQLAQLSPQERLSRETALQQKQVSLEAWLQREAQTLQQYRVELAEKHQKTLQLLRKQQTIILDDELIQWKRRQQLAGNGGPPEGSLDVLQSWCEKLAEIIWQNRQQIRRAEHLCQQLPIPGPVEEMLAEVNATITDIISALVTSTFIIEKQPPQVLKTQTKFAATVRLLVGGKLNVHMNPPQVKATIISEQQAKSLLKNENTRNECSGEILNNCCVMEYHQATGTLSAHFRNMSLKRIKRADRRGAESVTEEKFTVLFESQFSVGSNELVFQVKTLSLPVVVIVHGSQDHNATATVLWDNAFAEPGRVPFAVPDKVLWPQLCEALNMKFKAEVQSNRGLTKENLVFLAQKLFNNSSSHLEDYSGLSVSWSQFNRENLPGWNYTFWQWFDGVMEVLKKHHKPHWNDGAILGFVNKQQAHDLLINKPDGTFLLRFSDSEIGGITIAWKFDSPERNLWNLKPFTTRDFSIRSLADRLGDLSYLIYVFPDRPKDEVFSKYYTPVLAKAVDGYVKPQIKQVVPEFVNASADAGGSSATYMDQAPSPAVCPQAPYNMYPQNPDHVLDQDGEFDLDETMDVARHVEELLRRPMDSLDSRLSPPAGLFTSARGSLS
# Experimental: as §3, §4
# in vitro = conditions: human
# [1] = Homo sapiens, K562, read-out: (IC50 μM)±SD K-562
# [2] = Homo sapiens, MCF7, read-out: (IC50 μM)±SD MCF-7
Compound,IC50 (K-562; read-out: (IC50 μM)±SD K-562) [µM],IC50 (MCF-7; read-out: (IC50 μM)±SD MCF-7) [µM],IC50 (HT-29) [µM],IC50 (K-562; [1]) [µM],IC50 (MCF-7; [2]) [µM],IC50 (HT-29; Homo sapiens) [µM],IC50 (STAT3; MCF7 cells) [µM],IC50 (STAT5a; MCF7 cells) [µM],melting point [°C],IC50 (in vitro) [µM],IC50 (STAT3; K562 cells) [µM],IC50 (STAT5a; K562 cells) [µM]
"N.N.[Cl][Pt][Cl] [Cisplatin, reference compound]",2.31 ± 0.09,6.62 ± 0.29,1.12 ± 0.06,–,–,–,–,–,–,–,–,–
"COc1ccc(/C=C/C(=O)c2ccc(NC(=O)CSc3nc(-c4ccc(C)cc4)cc(-c4ccc(OC)cc4)n3)cc2)cc1 [Compound 9a, (ZE)-2-[4-(4-Methoxyphenyl)-6-p-tolylpyrimidin-2-ylthio]-N-{4-[3-(4 methoxyphenyl)acryloyl]phenyl}acetamide]",–,–,–,18.4 ± 0.76,3.56 ± 0.14,2.2 ± 0.04,243 ± 9.24,83.8 ± 3.28,226 to 228,17.1,–,–
"COc1ccc(-c2cc(-c3ccc(C)cc3)nc(SCC(=O)Nc3ccc(C(=O)/C=C/c4ccc(OC)c(OC)c4)cc3)n2)cc1 [Compound 9b, (ZE)-N-{4-[3-(3,4-Dimethoxyphenyl)acryloyl]phenyl}-2-[4-(4-methoxyphenyl)-6-p-tolylpyrimidin-2-ylthio]acetamide]",–,–,–,3.62 ± 0.08,22.4 ± 1.57,16.4 ± 0.76,–,–,165 to 167,–,–,–
"COc1ccc(-c2cc(-c3ccc(C)cc3)nc(SCC(=O)Nc3ccc(C(=O)/C=C/c4cc(OC)c(OC)c(OC)c4)cc3)n2)cc1 [Compound 9c, (ZE)-2-[4-(4-Methoxyphenyl)-6-p-tolylpyrimidin-2-ylthio]-N-{4-[3-(3,4,5-trimethoxyphenyl)acryloyl]phenyl}acetamide]",–,–,–,11.42 ± 0.04,4.25 ± 0.13,8.7 ± 0.28,–,–,195 to 197,–,–,–
"COc1ccc(/C=C/C(=O)c2ccc(NC(=O)CSc3nc(-c4ccc(OC)cc4)cc(-c4ccc([N+](=O)[O-])cc4)n3)cc2)cc1 [Compound 9d, (ZE)-2-[4-(4-Methoxyphenyl)-6-(4-nitrophenyl)pyrimidin-2-ylthio]-N-{4-[3-(4-methoxyphenyl)acryloyl]phenyl}acetamide]",–,–,–,0.77 ± 0.03,14.2 ± 0.74,25.9 ± 1.67,–,–,183 to 185,29.2 to 40.1,160 ± 4.59,116 ± 4.13
"COc1ccc(-c2cc(-c3ccc([N+](=O)[O-])cc3)nc(SCC(=O)Nc3ccc(C(=O)/C=C/c4ccc(OC)c(OC)c4)cc3)n2)cc1 [Compound 9e, (ZE)-N-{4-[3-(3,4-Dimethoxyphenyl)acryloyl]phenyl}-2-[4-(4-methoxyphenyl)-6-(4-nitrophenyl)pyrimidin-2-ylthio]-acetamide]",–,–,–,7.05 ± 0.28,18.7 ± 0.92,7.31 ± 0.36,–,–,225 to 227,–,–,–
"COc1ccc(-c2cc(-c3ccc([N+](=O)[O-])cc3)nc(SCC(=O)Nc3ccc(C(=O)/C=C/c4cc(OC)c(OC)c(OC)c4)cc3)n2)cc1 [Compound 9f, (ZE)-2-[4-(4-Methoxyphenyl)-6-(4-nitrophenyl)pyrimidin-2-ylthio]-N-{4-[3-(3,4,5-trimethoxyphenyl)acryloyl]phenyl}acetamide]",–,–,–,1.37 ± 0.03,5.77 ± 0.22,9.41 ± 0.43,–,–,254 to 256,29.2 to 40.1,245 ± 11.1,77.7 ± 2.91
"COc1ccc(/C=C/C(=O)c2ccc(NC(=O)CSc3nc(-c4ccc(OC)cc4)cc(-c4ccc(OCCCl)cc4)n3)cc2)cc1 [Compound 9g, (ZE)-2-{4-[4-(2-Chloroethoxy)phenyl]-6-(4-methoxyphenyl)pyrimidin-2-ylthio}-N-{4-[3-(4-methoxyphenyl)acryloyl]phenyl}acetamide]",–,–,–,3.17 ± 0.11,10.4 ± 0.64,10.6 ± 0.47,–,–,280 to 282,–,–,–
"COc1ccc(-c2cc(-c3ccc(OCCCl)cc3)nc(SCC(=O)Nc3ccc(C(=O)/C=C/c4ccc(OC)c(OC)c4)cc3)n2)cc1 [Compound 9h, (ZE)-2-{4-[4-(2-Chloroethoxy)phenyl]-6-(4-methoxyphenyl)pyrimidin-2-ylthio}-N-{4-[3-(3,4-dimethoxyphenyl)acryloyl]phenyl}acetamide]",–,–,–,7.07 ± 0.31,7.7 ± 0.32,18.8 ± 0.88,–,–,135 to 137,–,–,–
"COc1ccc(-c2cc(-c3ccc(OCCCl)cc3)nc(SCC(=O)Nc3ccc(C(=O)/C=C/c4cc(OC)c(OC)c(OC)c4)cc3)n2)cc1 [Compound 9i, (ZE)-2-{4-[4-(2-Chloroethoxy)phenyl]-6-(4-methoxyphenyl)pyrimidin-2-ylthio}-N-{4-[3-(3,4,5-trimethoxyphenyl)acryloyl]phenyl}acetamide]",–,–,–,9.71 ± 0.41,11.5 ± 0.81,11.5 ± 0.23,–,–,116 to 118,–,–,–
"COc1ccc(/C=C/C(=O)c2ccc(NC(=O)CSc3nc(-c4ccc(C)cc4)cc(-c4ccc(Cl)cc4)n3)cc2)cc1 [Compound 9j, (ZE)-2-[4-(4-Chlorophenyl)-6-p-tolylpyrimidin-2-ylthio]-N-{4-[3-(4-methoxyphenyl)acryloyl]phenyl}acetamide]",–,–,–,4.26 ± 0.06,6.26 ± 0.24,6.26 ± 0.34,–,–,242 to 244,–,–,–
"COc1ccc(/C=C/C(=O)c2ccc(NC(=O)CSc3nc(-c4ccc(C)cc4)cc(-c4ccc(Cl)cc4)n3)cc2)cc1OC [Compound 9k, (ZE)-2-[4-(4-Chlorophenyl)-6-p-tolylpyrimidin-2-ylthio]-N-{4-[3-(3,4-dimethoxyphenyl)acryloyl]phenyl}acetamide]",–,–,–,9.95 ± 0.29,28.7 ± 1.39,5.61 ± 0.18,–,–,144 to 146,–,–,–
"COc1cc(/C=C/C(=O)c2ccc(NC(=O)CSc3nc(-c4ccc(C)cc4)cc(-c4ccc(Cl)cc4)n3)cc2)cc(OC)c1OC [Compound 9l, (ZE)-2-[4-(4-Chlorophenyl)-6-p-tolylpyrimidin-2-ylthio]-N-{4-[3-(3,4,5-trimethoxyphenyl)acryloyl]phenyl}acetamide]",–,–,–,42.6 ± 1.99,13.5 ± 0.62,2.37 ± 0.07,–,–,234 to 236,–,–,–
"COc1ccc(/C=C/C(=O)c2ccc(NC(=O)CSc3nc(-c4ccc(Cl)cc4)cc(-c4ccc([N+](=O)[O-])cc4)n3)cc2)cc1 [Compound 9m, (ZE)-2-[4-(4-Chlorophenyl)-6-(4-nitrophenyl)pyrimidin-2-ylthio]-N-{4-[3-(4-methoxyphenyl)acryloyl]phenyl}acetamide]",–,–,–,3.86 ± 0.14,3.9 ± 0.09,7.9 ± 0.22,–,–,190 to 192,–,–,–
"COc1cc(/C=C/C(=O)c2ccc(NC(=O)CSc3nc(-c4ccc(Cl)cc4)cc(-c4ccc([N+](=O)[O-])cc4)n3)cc2)cc(OC)c1OC [Compound 9o, (ZE)-2-[4-(4-Chlorophenyl)-6-(4-nitrophenyl)pyrimidin-2-ylthio]-N-{4-[3-(3,4,5-trimethoxyphenyl)acryloyl]phenyl}acetamide]",–,–,–,12.3 ± 0.72,3.62 ± 0.084,3.62 ± 0.08,–,–,268 to 270,–,–,–
COc1ccc(/C=C/C(=O)c2ccc(NC(=O)CSc3nc(-c4ccc(Cl)cc4)cc(-c4ccc(OCCCl)cc4)n3)cc2)cc1 [Compound 9p],–,–,–,1.74 ± 0.04,11.6 ± 0.49,11.6 ± 0.63,–,–,136 to 138,–,–,–
COc1ccc(/C=C/C(=O)c2ccc(NC(=O)CSc3nc(-c4ccc(Cl)cc4)cc(-c4ccc(OCCCl)cc4)n3)cc2)cc1OC [Compound 9q],–,–,–,5.77 ± 0.16,6.81 ± 0.25,6.06 ± 0.29,–,–,210 to 212,–,–,–
"C#Cc1cccc(Nc2ncnc3cc(OCCOC)c(OCCOC)cc23)c1 [Erlotinib, reference compound]",–,–,–,9.85 ± 0.51,10.6 ± 0.58,9.2 ± 0.41,–,–,–,–,–,–
"C1=C/COCc2cc(ccc2OCCN2CCCC2)Nc2nccc(n2)-c2cccc(c2)COC/1 [Pacritinib, reference compound]",–,–,–,–,–,–,79.5 ± 2.17,54.4 ± 1.09,–,–,65.5 ± 2.55,69.8 ± 1.82
